Test results: patent US8168656B2, “Indoleacetic acid and indenacetic acid derivatives as therapeutic agents with reduced gastrointestinal toxicity” (Vanderbilt University, priority 2009, dated 2012)

Key:
cultured cancer cells = experiment: Induction of apoptosis of cultured cancer cells; type: cell-based, human
Description: RKO, HCT-116 (another human colorectal cancer cell line), and H1299 (a human non-small cell cancer line) cells that had been treated with test compounds for various times were washed twice with ice-cold PBS and lysed in a lysis buffer (BioVision) on ice for 10 minutes, followed by centrifugation at 15,000×g for 10 minutes. Caspase-3 activity, which is a measure if the initiation of apoptotic cell death, was determined in the supernatant by a colorimeric assay kit (BioVision Inc., Palo Alto, Calif., United States of America) using the p-nitroanilide-labeled peptide, DEVD-pNA, as substrate. Caspase-3 activity was monitored by the release of p-nitroanilide from the substrate at 405 nm. The fold increase in caspase-3 activity is shown in FIG. 9, and was calculated by comparing the absorbance of p-nitroanilide from vehicle treated controls and those treated with sulindac sulfide and its analogs. […]

PPARγ = PPARγ reporter assay in transfected HEK293 cells; type: cell-based; conditions: transfected cells in culture
Description: Human embryonic kidney cells (HEK293 cells) were purchased from American Type Culture Collection (ATCC) and maintained in Dulbecco's modified Eagle's medium (DMEM) with GIBCO™ GLUTAMAX™ (Invitrogen Corp., Carlsbad, Calif., United States of America) and 10% heat-inactivated FBS (Atlas Biological, Fort Collins, Colo., United States of America) or 10% charcoal-stripped FBS (HyClone, Logan, Utah, United States of America) in a 5% CO2 constant humidity 37° C. incubator. 9×10^5 HEK293 cells were plated in DMEM supplemented with 10% charcoal-stripped FBS. 18-24 hours after plating, cells were transfected with a control Renilla luciferase expressing plasmid (0.2 μg pCMV-renilla luciferase from Promega Corp., Madison, Wis., United States of America), 0.4 μg PPARγ-GAL4, and 0.4 μg UAS-tk-luc using a lipid ratio of 8 μL Effectene Transfection Reagent (Qiagen Inc., Valencia, Calif., United States of America) per 1 μg DNA in 3 mL of DMEM+10% charcoal-stripped FBS. Cells remained in the transfection mixture overnight until the transfection media was replaced with DMEM+10% charcoal-stripped serum containing ligands of interest or vehicle (0.1% DMSO) […]

C57/BL6 mice = experiment: Toxicity in vivo, daily injections; conditions: daily injections of a series of concentrations

| Structure (SMILES) | ability to induce apoptosis of cultured cancer cells, compared with parent drug (cultured cancer cells) | ability to activate PPARγ-mediated transcription in transfected cells, compared with parent drug (PPARγ) | less toxic than indomethacin (C57/BL6 mice) |
| --- | --- | --- | --- |
| COc1ccc2c(c1)c(CC(=O)O)cn2C(=O)c1ccc(Cl)cc1 [2-Des-methylindomethacin, [1-(4-Chloro-benzoyl)-5-methoxy-1H-indol-3-yl]-acetic acid] | as active or more active than the parent drug | as active or more active than the parent drug | at least 25 fold |
| CSc1ccc(C=C2C=C(CC(=O)O)c3cc(F)ccc32)cc1 [eindenic acid sulfide, [6-Fluoro-3-(4-methylsulfanyl-benzylidene)-3H-inden-1-yl]-acetic acid] | considerably more active than sulindac sulfide | considerably more active than sulindac sulfide | – |
